The assay addresses human sodium ion channel 1.7 (hNav1.7) (Homo sapiens, UniProt Q15858). The assay can be described thus: Blocking effect against sodium ion channel Nav1.7, IonFlux16 auto patch clamp in hNav1.7 HEK293 cells. The class given is cell-based. Conditions: hNav1.7 HEK293 cells; inhibition of peak current after 50 seconds treatment; eight concentrations; read-out: IC50. A general note: In patch-clamp work, channel activity is measured electrically.

Sequence of human sodium ion channel 1.7 (hNav1.7) (Q15858 whole entry): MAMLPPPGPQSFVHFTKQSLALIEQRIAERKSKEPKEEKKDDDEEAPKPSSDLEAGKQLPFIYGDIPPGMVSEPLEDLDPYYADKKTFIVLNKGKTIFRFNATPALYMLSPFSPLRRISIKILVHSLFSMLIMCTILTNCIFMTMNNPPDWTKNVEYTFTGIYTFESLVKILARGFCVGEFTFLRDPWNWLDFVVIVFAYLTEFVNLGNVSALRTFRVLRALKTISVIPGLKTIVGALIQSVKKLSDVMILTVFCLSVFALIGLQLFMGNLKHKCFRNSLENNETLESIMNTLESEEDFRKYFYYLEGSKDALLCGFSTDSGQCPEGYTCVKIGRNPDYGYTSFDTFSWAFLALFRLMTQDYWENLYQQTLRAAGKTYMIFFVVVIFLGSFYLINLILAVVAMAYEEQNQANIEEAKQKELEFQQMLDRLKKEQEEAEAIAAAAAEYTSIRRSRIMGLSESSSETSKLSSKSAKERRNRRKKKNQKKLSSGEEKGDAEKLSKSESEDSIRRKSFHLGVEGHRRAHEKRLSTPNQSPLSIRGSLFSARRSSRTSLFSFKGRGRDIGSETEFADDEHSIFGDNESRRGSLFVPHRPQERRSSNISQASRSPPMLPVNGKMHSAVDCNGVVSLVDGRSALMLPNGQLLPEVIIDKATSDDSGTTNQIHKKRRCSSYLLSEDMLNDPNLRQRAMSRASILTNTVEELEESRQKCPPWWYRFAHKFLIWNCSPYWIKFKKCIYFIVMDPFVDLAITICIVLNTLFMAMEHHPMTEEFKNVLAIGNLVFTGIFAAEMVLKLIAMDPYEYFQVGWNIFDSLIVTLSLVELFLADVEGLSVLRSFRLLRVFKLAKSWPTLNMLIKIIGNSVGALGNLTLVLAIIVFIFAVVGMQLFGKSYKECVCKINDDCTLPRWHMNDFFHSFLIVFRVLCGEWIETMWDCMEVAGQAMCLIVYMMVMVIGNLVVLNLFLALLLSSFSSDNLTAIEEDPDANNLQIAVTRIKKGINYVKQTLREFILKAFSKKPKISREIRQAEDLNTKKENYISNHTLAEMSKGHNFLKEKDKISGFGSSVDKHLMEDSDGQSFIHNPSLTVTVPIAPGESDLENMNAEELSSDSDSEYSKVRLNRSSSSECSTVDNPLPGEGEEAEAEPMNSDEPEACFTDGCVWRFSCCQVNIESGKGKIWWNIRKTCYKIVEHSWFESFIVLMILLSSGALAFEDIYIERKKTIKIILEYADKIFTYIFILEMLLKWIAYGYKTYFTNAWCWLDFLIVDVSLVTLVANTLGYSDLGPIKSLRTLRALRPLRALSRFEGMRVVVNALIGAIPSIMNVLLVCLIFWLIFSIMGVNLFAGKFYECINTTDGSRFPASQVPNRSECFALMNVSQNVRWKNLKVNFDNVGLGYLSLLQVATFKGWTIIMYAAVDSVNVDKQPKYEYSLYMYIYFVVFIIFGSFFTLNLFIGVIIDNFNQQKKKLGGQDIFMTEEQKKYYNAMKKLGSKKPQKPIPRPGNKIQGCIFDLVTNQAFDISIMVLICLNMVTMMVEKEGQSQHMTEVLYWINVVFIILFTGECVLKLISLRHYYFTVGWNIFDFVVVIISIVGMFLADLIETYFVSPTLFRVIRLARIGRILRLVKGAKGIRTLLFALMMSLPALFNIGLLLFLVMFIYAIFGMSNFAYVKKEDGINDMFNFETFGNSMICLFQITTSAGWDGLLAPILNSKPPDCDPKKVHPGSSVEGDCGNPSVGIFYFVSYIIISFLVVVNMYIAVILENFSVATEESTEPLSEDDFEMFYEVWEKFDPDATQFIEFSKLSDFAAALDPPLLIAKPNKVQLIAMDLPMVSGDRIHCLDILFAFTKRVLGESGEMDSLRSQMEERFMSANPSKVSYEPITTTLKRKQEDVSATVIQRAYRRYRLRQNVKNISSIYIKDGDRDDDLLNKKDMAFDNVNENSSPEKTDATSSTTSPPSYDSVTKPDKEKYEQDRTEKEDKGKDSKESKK

With `CS(=O)(=O)NC(=O)c1cc(Cl)c(-n2nc(-c3cccnc3)c3cc(F)ccc32)cc1F` [Example 165, 5-chloro-2-fluoro-4-(5-fluoro-3-(pyridin-3-yl)-1H-indazol-1-yl)-N-(methylsulfonyl)benzamide], the concentration for half-maximal inhibition (IC50) came out at 5490 nM. For `CS(=O)(=O)NC(=O)c1cc(Cl)c(-n2cc(-c3ccc(C#N)cc3)c3cc(Cl)cnc32)cc1F` [Example 187, 5-chloro-4-(5-chloro-3-(4-cyanophenyl)-1H-pyrrolo[2,3-b]pyridin-1-yl)-2-fluoro-N-(methylsulfonyl)benzamide], the IC50 came to 620 nM. The result for `CS(=O)(=O)NC(=O)c1cc(Cl)c(-n2cc(-c3ccc(F)cc3F)c3cc(Cl)cnc32)cc1F` [Example 186, 5-chloro-4-(5-chloro-3-(2,4-difluorophenyl)-1H-pyrrolo[2,3-b]pyridin-1-yl)-2-fluoro-N-(methylsulfonyl)benzamide] reads 80 nM; that for `CS(=O)(=O)NC(=O)c1ccc(-n2nc(-c3ccc(C#N)cc3)c3cc(Cl)ccc32)c(C#N)c1` [Example 96, 4-(5-chloro-3-(4-cyanophenyl)-1H-indazol-1-yl)-3-cyano-N-(methylsulfonyl)benzamide], above 10000 nM; that for `Cc1nn(-c2cc(F)c(C(=O)NS(C)(=O)=O)cc2Cl)c2ccc(Cl)cc12` [Example 1, 5-chloro-4-(5-chloro-3-methyl-1H-indazol-1-yl)-2-fluoro-N-(methylsulfonyl)benzamide], above 10000 nM. Turning to `CS(=O)(=O)NC(=O)c1cc(Cl)c(-n2nc(Cl)c3cc(-c4ccccc4C#N)ccc32)cc1F` [Example 237, 5-chloro-4-(3-chloro-5-(2-cyanophenyl)-1H-indazol-1-yl)-2-fluoro-N-(methylsulfonyl)benzamide], the IC50 is above 10000 nM. For the compound `CS(=O)(=O)NC(=O)c1ccc(-n2nc(-c3ccc(Cl)cc3F)c3cc(Cl)ccc32)c(C#N)c1` [Example 100, 4-(5-chloro-3-(4-chloro-2-fluorophenyl)-1H-indazol-1-yl)-3-cyano-N-(methylsulfonyl)benzamide], the half-inhibitory concentration (IC50) stood at 279 nM. The result for `CS(=O)(=O)NC(=O)c1cc(Cl)c(-n2cc(-c3ccc(Cl)cc3)c3cccnc32)cc1F` [Example 224, 5-chloro-4-(3-(4-chlorophenyl)-1H-pyrrolo[2,3-b]pyridin-1-yl)-2-fluoro-N-(methylsulfonyl)benzamide] reads 280 nM; that for `CS(=O)(=O)NC(=O)c1cc(Cl)c(-n2nc(-c3ccc(C#N)cc3)c3cc(Cl)ccc32)cc1F` [Example 62, 5-chloro-4-(5-chloro-3-(4-cyanophenyl)-1H-indazol-1-yl)-2-fluoro-N-(methylsulfonyl)benzamide], 554 nM; that for `CS(=O)(=O)NC(=O)c1cc(Cl)c(-n2nc(-c3ccccc3)c3cc(Cl)ccc32)cc1F` [Example 48, 5-chloro-4-(5-chloro-3-phenyl-1H-indazol-1-yl)-2-fluoro-N-(methylsulfonyl)benzamide], 48 nM.

`O=S(=O)(Nc1ncns1)c1cc(F)c(-n2nc(Cl)c3cc(C(F)(F)F)ccc32)cc1F` [Example 281, 4-(3-chloro-5-(trifluoromethyl)-1H-indazol-1-yl)-2,5-difluoro-N-(1,2,4-thiadiazol-5-yl)benzenesulfonamide]: the IC50 lay within 3000 to 10000 nM. Turning to `CS(=O)(=O)NC(=O)c1cc(Cl)c(-n2nc(Cl)c3cc(-c4ccc(C#N)cc4)ccc32)cc1F` [Example 240, 5-chloro-4-(3-chloro-5-(4-cyanophenyl)-1H-indazol-1-yl)-2-fluoro-N-(methylsulfonyl)benzamide], the concentration for half-maximal inhibition (IC50) was 752 nM. The result for `CS(=O)(=O)NC(=O)c1cc(Cl)c(-n2nc(Cl)c3cc(Nc4ccccc4)ccc32)cc1F` [Example 27, 5-chloro-4-(3-chloro-5-(phenylamino)-1H-indazol-1-yl)-2-fluoro-N-(methylsulfonyl)benzamide] reads 7710 nM; that for `CS(=O)(=O)NC(=O)c1cc(Cl)c(-n2nc(-c3ccc(N)cc3)c3cc(Cl)ccc32)cc1F` [Example 82, 4-(3-(4-aminophenyl)-5-chloro-1H-indazol-1-yl)-5-chloro-2-fluoro-N-(methylsulfonyl)benzamide], 7910 nM; that for `CS(=O)(=O)NC(=O)c1ccc(-n2nc(Cl)c3cc(Cl)ccc32)cc1F` [Example 4, 4-(3,5-dichloro-1H-indazol-1-yl)-2-fluoro-N-(methylsulfonyl)benzamide], above 10000 nM. Consider `CS(=O)(=O)NC(=O)c1cc(Cl)c(-n2nc(-c3ccc(Cl)cc3F)c3ccccc32)cc1F` [Example 184, 5-chloro-4-(3-(4-chloro-2-fluorophenyl)-1H-indazol-1-yl)-2-fluoro-N-(methylsulfonyl)benzamide], for which the half-inhibitory concentration (IC50) was determined as 70 nM.

For the compound `CS(=O)(=O)NC(=O)c1cc(Cl)c(-n2nc(Cl)c3cc([N+](=O)[O-])ccc32)cc1F` [Example 23, 5-chloro-4-(3-chloro-5-nitro-1H-indazol-1-yl)-2-fluoro-N-(methylsulfonyl)benzamide], the half-maximal inhibitory concentration (IC50) is 365 nM. The result for `CS(=O)(=O)NC(=O)c1ccc(-n2nc(-c3ccccc3C#N)c3cc(Cl)ccc32)c(C#N)c1` [Example 94, 4-(5-chloro-3-(2-cyanophenyl)-1H-indazol-1-yl)-3-cyano-N-(methylsulfonyl)benzamide] reads above 10000 nM. With `CS(=O)(=O)NC(=O)c1cc(Cl)c(-n2cc(-c3cccc(F)c3)c3cc(Cl)cnc32)cc1F` [Example 190, 5-chloro-4-(5-chloro-3-(3-fluorophenyl)-1H-pyrrolo[2,3-b]pyridin-1-yl)-2-fluoro-N-(methylsulfonyl)benzamide], the IC50 came out at 170 nM. Regarding `CS(=O)(=O)NC(=O)c1cc(Cl)c(-n2nc(-c3cccc(C(F)(F)F)c3)c3cc(F)ccc32)cc1F` [Example 150, 5-chloro-2-fluoro-4-(5-fluoro-3-(3-(trifluoromethyl)phenyl)-1H-indazol-1-yl)-N-(methylsulfonyl)benzamide], the 50% inhibitory concentration (IC50) came to 180 nM. As to `O=S(=O)(Nc1cscn1)c1cc(Cl)c(-n2nc(Cl)c3cc(-c4ccccc4)ccc32)cc1F` [Example 276, 5-chloro-4-(3-chloro-5-phenyl-1H-indazol-1-yl)-2-fluoro-N-(thiazol-4-yl)benzenesulfonamide], the half-maximal inhibitory concentration (IC50) was above 10000 nM.

On to `CS(=O)(=O)NC(=O)c1cc(Cl)c(-n2nc(Cl)c3ccc(-c4ccccc4)cc32)cc1F` [Example 263, 5-chloro-4-(3-chloro-6-phenyl-1H-indazol-1-yl)-2-fluoro-N-(methylsulfonyl)benzamide], for which the concentration for half-maximal inhibition (IC50) was above 10000 nM. With `CS(=O)(=O)NC(=O)c1ccc(-n2nc(-c3ccccc3)c3cc(Cl)ccc32)cc1F` [Example 127, 4-(5-chloro-3-phenyl-1H-indazol-1-yl)-2-fluoro-N-(methylsulfonyl)benzamide], the half-inhibitory concentration (IC50) was 3940 nM. The result for `CS(=O)(=O)NC(=O)c1cc(Cl)c(-n2nc(-c3cc[nH]n3)c3cc(Cl)ccc32)cc1F` [Example 90, 5-chloro-4-(5-chloro-3-(1H-pyrazol-3-yl)-1H-indazol-1-yl)-2-fluoro-N-(methylsulfonyl)benzamide] reads 11200 nM; that for `CS(=O)(=O)NC(=O)c1cc(Cl)c(-n2nc(Cl)c3c(Cl)c(OCc4ccc(F)cc4)ccc32)cc1F` [Example 31, 5-chloro-4-(3,4-dichloro-5-((4-fluorobenzyl)oxy)-1H-indazol-1-yl)-2-fluoro-N-(methylsulfonyl)benzamide], 1510 nM; that for `COc1ccccc1-c1nn(-c2cc(Cl)c(C(=O)NS(C)(=O)=O)cc2F)c2ccc(Cl)cc12` [Example 107, 2-chloro-4-(5-chloro-3-(2-methoxyphenyl)-1H-indazol-1-yl)-5-fluoro-N-(methylsulfonyl)benzamide], 811 nM. Regarding `CS(=O)(=O)NC(=O)c1cc(F)c(-n2nc(-c3ccc(F)cc3F)c3cc(Cl)ccc32)cc1Cl` [Example 115, 2-chloro-4-(5-chloro-3-(2,4-difluorophenyl)-1H-indazol-1-yl)-5-fluoro-N-(methylsulfonyl)benzamide], the IC50 turned out to be 727 nM. Consider `CS(=O)(=O)NC(=O)c1cc(Cl)c(-n2nc(Cl)c3cc(-c4cc(Cl)ccc4F)ccc32)cc1F` [Example 254, 5-chloro-4-(3-chloro-5-(5-chloro-2-fluorophenyl)-1H-indazol-1-yl)-2-fluoro-N-(methylsulfonyl)benzamide], for which the IC50 amounted to 420 nM. The result for `CS(=O)(=O)NC(=O)c1cc(Cl)c(-n2cc(Cl)c3c(Cl)c(O)ccc32)cc1F` [Example 267, 5-chloro-4-(3,4-dichloro-5-hydroxy-1H-indol-1-yl)-2-fluoro-N-(methylsulfonyl)benzamide] reads above 10000 nM; that for `CS(=O)(=O)NC(=O)c1cc(Cl)c(-n2nc(-c3cccnc3)c3ccccc32)cc1F` [Example 180, 5-chloro-2-fluoro-N-(methylsulfonyl)-4-(3-(pyridin-3-yl)-1H-indazol-1-yl)benzamide], above 10000 nM; that for `CS(=O)(=O)NC(=O)c1cc(Cl)c(-n2nc(Cl)c3cc(-c4ccccc4)ccc32)cc1F` [Example 230, 5-chloro-4-(3-chloro-5-phenyl-1H-indazol-1-yl)-2-fluoro-N-(methylsulfonyl)benzamide], 144 nM. The result for `Cc1ccccc1-c1nn(-c2cc(F)c(C(=O)NS(C)(=O)=O)cc2Cl)c2ccc(F)cc12` [Example 147, 5-chloro-2-fluoro-4-(5-fluoro-3-(o-tolyl)-1H-indazol-1-yl)-N-(methylsulfonyl)benzamide] reads 60 nM; that for `CS(=O)(=O)NC(=O)c1cc(Cl)c(-n2nc(-c3cccnc3)c3cc(Cl)ccc32)cc1F` [Example 50, 5-chloro-4-(5-chloro-3-(pyridin-3-yl)-1H-indazol-1-yl)-2-fluoro-N-(methylsulfonyl)benzamide], 913 nM; that for `CS(=O)(=O)NC(=O)c1cc(Cl)c(-n2cc(-c3ccc(Cl)cc3Cl)c3cc(F)cnc32)cc1F` [Example 209, 5-chloro-4-(3-(2,4-dichlorophenyl)-5-fluoro-1H-pyrrolo[2,3-b]pyridin-1-yl)-2-fluoro-N-(methylsulfonyl)benzamide], 40 nM. For the compound `CS(=O)(=O)NC(=O)c1ccc(-n2nc(-c3ccccc3F)c3cc(Cl)ccc32)c(F)c1` [Example 124, 4-(5-chloro-3-(2-fluorophenyl)-1H-indazol-1-yl)-3-fluoro-N-(methylsulfonyl)benzamide], the IC50 amounted to 290 nM.

What is called IC50 is the midpoint of a concentration-inhibition curve.
